Molecules are shown by their SMILES.

We go through 2 molecules from ChEMBL document CHEMBL5678818, “Discovery of potent SOS1 inhibitors that block RAS activation via disruption of the RAS-SOS1 interaction” (Proc Natl Acad Sci U S A, 2019).

In test [1] the test system is Tyrosine-protein kinase ABL1 (Homo sapiens), P00519 [F317I]. Nature of the test: Inhibition of phosphorylated ABL1 F317I mutant (unknown origin) assessed as residual activity at 1000 nM by KINOMEscan analysis relative to control.
Test [2] concerns the target Dual specificity protein kinase CLK1 (Homo sapiens) (UniProt P49759). Briefly: Inhibition of CLK1 (unknown origin) assessed as residual activity at 1000 nM by KINOMEscan analysis relative to control.
Test [3] addresses Casein kinase I isoform gamma-2 (Homo sapiens) (UniProt P78368). Nature of the test: Inhibition of CSNK1G2 (unknown origin) assessed as residual activity at 1000 nM by KINOMEscan analysis relative to control.
The test system of test [4] is Epidermal growth factor receptor (Homo sapiens), P00533 [UNDEFINED MUTATION]. Briefly: Inhibition of EGFR L747-E749del/A750P mutant (unknown origin) assessed as residual activity at 1000 nM by KINOMEscan analysis relative to control.
In test [5] the target is Ephrin type-A receptor 5 (Homo sapiens) (UniProt P54756). Nature of the test: Inhibition of EPHA5 (unknown origin) assessed as residual activity at 1000 nM by KINOMEscan analysis relative to control.
Test [6] has as its target Focal adhesion kinase 1 (Homo sapiens) (UniProt Q05397). Briefly: Inhibition of FAK (unknown origin) assessed as residual activity at 1000 nM by KINOMEscan analysis relative to control.
In test [7] the target is Fibroblast growth factor receptor 1 (Homo sapiens) (UniProt P11362). Nature of the test: Inhibition of FGFR1 (unknown origin) assessed as residual activity at 1000 nM by KINOMEscan analysis relative to control.
The subject of test [8] is Receptor-type tyrosine-protein kinase FLT3 (Homo sapiens), P36888 [N841I]. Briefly: Inhibition of FLT3 N841I mutant (unknown origin) assessed as residual activity at 1000 nM by KINOMEscan analysis relative to control.
Test [9] concerns Mast/stem cell growth factor receptor Kit (Homo sapiens), P10721 [D816H]. Nature of the test: Inhibition of KIT D816H mutant (unknown origin) assessed as residual activity at 1000 nM by KINOMEscan analysis relative to control.
Test [10] deals with Mitogen-activated protein kinase kinase kinase kinase 4 (Homo sapiens) (UniProt O95819). Briefly: Inhibition of MAP4K4 (unknown origin) assessed as residual activity at 1000 nM by KINOMEscan analysis relative to control.
Test [11] has as its target Cyclin-dependent kinase 17 (Homo sapiens) (UniProt Q00537). Nature of the test: Inhibition of PCTK2 (unknown origin) assessed as residual activity at 1000 nM by KINOMEscan analysis relative to control.
For test [12], the target named is Phosphatidylinositol 4,5-bisphosphate 3-kinase catalytic subunit gamma isoform (Homo sapiens) (UniProt P48736). Briefly: Inhibition of PIK3CG (unknown origin) assessed as residual activity at 1000 nM by KINOMEscan analysis relative to control.
The target in test [13] is Rho-associated protein kinase 2 (Homo sapiens) (UniProt O75116). Briefly: Inhibition of ROCK2 (unknown origin) assessed as residual activity at 1000 nM by KINOMEscan analysis relative to control.
Test [14] addresses Ribosomal protein S6 kinase alpha-3 (Homo sapiens) (UniProt P51812). Briefly: Inhibition of C-terminal RSK2 kinetic domain 2 (unknown origin) assessed as residual activity at 1000 nM by KINOMEscan analysis relative to control.
For test [15], the target named is T1, Serine/threonine-protein kinase Sgk1 (Homo sapiens) (UniProt O00141).
T1 sequence (whole entry): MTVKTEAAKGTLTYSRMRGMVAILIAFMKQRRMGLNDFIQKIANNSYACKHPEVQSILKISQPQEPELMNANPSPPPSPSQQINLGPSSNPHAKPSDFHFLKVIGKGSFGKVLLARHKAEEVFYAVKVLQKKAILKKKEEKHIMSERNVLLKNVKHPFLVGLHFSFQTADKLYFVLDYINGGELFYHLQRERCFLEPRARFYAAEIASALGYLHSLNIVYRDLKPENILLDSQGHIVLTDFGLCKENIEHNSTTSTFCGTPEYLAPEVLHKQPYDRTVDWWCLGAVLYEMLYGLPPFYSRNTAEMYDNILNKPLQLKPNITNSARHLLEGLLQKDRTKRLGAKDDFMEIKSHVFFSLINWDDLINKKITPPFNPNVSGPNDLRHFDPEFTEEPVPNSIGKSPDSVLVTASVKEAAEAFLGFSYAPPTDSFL
Briefly: Inhibition of SGK (unknown origin) assessed as residual activity at 1000 nM by KINOMEscan analysis relative to control.

Test [16] deals with T2, Serine/threonine-protein kinase Sgk2 (Homo sapiens) (UniProt Q9HBY8).
T2 sequence (whole entry): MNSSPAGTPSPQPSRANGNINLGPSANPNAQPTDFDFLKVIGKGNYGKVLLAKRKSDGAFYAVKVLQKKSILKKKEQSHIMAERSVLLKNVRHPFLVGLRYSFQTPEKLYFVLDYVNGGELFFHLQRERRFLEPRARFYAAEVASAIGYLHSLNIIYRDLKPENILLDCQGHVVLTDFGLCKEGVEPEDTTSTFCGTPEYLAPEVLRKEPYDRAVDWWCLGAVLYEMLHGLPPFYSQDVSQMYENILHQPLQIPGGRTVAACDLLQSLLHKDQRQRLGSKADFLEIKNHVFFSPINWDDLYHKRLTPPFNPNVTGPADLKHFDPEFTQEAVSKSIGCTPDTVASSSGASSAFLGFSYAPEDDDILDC
Nature of the test: Inhibition of SGK2 (unknown origin) assessed as residual activity at 1000 nM by KINOMEscan analysis relative to control.

Test [17] addresses T3, Tyrosine-protein kinase TXK (Homo sapiens) (UniProt P42681).
T3 sequence (whole entry): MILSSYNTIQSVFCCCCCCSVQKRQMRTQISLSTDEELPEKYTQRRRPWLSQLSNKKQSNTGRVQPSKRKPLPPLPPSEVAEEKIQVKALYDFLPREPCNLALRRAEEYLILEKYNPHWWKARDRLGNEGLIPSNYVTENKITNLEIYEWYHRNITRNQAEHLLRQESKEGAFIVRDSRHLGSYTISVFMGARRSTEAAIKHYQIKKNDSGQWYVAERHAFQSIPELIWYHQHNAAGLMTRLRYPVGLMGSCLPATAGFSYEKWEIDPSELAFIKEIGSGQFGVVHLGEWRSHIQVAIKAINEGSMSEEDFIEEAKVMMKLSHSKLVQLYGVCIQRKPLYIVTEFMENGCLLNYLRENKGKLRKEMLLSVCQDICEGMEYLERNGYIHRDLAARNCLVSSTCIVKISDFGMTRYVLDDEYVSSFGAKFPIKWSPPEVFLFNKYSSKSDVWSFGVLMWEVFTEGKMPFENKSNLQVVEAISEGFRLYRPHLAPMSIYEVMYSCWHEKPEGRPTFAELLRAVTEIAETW
Briefly: Inhibition of TXK (unknown origin) assessed as residual activity at 1000 nM by KINOMEscan analysis relative to control.

The target in test [18] is Serine/threonine-protein kinase 32B (Homo sapiens) (UniProt Q9NY57). Briefly: Inhibition of YANK2 (unknown origin) assessed as residual activity at 1000 nM by KINOMEscan analysis relative to control.
Sequence of Serine/threonine-protein kinase 32B (Homo sapiens) (Q9NY57 whole entry): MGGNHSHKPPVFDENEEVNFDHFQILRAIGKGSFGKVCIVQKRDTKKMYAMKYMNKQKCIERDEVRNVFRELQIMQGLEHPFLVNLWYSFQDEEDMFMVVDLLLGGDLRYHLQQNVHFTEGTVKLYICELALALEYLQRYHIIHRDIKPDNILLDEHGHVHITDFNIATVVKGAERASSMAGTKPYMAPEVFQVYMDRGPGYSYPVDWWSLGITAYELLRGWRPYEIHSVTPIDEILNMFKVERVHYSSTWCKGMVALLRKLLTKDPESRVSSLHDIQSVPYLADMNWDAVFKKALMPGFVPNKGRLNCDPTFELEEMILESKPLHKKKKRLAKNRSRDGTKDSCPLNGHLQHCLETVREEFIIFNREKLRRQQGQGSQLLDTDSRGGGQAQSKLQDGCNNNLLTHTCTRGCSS

Sequence of Mast/stem cell growth factor receptor Kit (Homo sapiens), P10721 [D816H] (P10721 whole entry D816H): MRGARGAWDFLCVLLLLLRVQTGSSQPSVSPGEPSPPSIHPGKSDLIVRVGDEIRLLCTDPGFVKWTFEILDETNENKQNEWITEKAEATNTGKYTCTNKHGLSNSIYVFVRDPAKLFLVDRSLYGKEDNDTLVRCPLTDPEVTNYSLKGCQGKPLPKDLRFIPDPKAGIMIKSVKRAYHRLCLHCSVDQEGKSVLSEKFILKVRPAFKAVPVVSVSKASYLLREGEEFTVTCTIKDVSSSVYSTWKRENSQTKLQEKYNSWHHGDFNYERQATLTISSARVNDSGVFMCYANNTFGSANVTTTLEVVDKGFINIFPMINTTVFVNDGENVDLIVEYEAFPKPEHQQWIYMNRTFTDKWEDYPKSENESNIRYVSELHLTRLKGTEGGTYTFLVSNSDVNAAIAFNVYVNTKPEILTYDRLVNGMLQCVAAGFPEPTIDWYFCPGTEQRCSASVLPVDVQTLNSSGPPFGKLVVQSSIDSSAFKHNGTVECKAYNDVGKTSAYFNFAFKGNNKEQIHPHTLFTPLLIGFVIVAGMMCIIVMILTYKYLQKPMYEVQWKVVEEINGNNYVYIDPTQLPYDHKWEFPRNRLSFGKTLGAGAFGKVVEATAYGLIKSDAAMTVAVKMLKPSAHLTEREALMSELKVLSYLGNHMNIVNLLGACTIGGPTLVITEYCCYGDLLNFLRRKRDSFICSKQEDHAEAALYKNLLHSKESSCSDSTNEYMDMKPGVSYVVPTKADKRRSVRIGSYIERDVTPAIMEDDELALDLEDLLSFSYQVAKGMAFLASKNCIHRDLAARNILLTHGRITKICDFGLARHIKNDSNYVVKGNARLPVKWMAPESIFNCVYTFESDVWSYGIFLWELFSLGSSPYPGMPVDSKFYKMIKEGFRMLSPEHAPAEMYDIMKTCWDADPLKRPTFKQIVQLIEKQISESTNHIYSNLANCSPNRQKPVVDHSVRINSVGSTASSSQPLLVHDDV
Sequence of Cyclin-dependent kinase 17 (Homo sapiens) (Q00537 whole entry, looked up, canonical isoform): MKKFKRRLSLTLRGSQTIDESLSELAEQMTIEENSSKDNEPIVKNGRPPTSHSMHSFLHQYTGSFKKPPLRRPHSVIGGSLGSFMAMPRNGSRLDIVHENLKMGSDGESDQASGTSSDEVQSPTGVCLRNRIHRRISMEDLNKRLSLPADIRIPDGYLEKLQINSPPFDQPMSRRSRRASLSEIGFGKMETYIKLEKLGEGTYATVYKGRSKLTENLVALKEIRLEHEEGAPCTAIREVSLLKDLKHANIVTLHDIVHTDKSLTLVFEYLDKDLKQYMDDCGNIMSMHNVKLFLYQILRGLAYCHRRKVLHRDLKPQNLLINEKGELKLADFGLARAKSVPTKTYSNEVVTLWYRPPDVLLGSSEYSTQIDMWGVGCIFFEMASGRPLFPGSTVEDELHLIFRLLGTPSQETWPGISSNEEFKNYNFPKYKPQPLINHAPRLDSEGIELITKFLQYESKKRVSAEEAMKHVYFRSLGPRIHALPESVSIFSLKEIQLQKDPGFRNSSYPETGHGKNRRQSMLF
Sequence of Phosphatidylinositol 4,5-bisphosphate 3-kinase catalytic subunit gamma isoform (Homo sapiens) (P48736 whole entry, looked up, canonical isoform): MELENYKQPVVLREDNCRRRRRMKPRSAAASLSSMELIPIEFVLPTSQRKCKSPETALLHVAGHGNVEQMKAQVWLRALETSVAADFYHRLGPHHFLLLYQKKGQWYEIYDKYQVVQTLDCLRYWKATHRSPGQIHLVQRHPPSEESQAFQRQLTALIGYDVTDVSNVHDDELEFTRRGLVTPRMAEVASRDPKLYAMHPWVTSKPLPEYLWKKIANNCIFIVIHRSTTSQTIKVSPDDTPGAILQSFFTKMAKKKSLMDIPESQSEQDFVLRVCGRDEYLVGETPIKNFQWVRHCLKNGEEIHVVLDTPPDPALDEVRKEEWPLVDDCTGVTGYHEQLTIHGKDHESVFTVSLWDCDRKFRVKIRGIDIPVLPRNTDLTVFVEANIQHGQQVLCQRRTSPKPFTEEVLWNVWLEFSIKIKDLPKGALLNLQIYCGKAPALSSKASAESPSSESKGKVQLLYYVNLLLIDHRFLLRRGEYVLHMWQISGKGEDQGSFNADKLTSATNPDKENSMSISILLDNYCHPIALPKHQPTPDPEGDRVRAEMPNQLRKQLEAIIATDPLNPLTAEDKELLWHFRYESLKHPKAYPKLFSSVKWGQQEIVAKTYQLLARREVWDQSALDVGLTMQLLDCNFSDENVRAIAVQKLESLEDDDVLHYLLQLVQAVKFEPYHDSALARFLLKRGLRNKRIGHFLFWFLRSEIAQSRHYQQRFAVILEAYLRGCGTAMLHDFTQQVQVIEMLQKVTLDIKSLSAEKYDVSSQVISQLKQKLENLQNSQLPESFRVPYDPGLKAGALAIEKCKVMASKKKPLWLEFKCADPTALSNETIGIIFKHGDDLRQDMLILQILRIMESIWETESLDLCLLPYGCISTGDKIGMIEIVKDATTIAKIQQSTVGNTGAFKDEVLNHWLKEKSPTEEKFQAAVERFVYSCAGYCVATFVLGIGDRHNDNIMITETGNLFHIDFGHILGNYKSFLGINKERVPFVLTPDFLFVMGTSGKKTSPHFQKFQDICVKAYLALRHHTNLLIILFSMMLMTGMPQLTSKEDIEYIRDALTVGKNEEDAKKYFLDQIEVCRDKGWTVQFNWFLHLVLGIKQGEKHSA
Sequence of Ribosomal protein S6 kinase alpha-3 (Homo sapiens) (P51812 whole entry, the tested form may be a part): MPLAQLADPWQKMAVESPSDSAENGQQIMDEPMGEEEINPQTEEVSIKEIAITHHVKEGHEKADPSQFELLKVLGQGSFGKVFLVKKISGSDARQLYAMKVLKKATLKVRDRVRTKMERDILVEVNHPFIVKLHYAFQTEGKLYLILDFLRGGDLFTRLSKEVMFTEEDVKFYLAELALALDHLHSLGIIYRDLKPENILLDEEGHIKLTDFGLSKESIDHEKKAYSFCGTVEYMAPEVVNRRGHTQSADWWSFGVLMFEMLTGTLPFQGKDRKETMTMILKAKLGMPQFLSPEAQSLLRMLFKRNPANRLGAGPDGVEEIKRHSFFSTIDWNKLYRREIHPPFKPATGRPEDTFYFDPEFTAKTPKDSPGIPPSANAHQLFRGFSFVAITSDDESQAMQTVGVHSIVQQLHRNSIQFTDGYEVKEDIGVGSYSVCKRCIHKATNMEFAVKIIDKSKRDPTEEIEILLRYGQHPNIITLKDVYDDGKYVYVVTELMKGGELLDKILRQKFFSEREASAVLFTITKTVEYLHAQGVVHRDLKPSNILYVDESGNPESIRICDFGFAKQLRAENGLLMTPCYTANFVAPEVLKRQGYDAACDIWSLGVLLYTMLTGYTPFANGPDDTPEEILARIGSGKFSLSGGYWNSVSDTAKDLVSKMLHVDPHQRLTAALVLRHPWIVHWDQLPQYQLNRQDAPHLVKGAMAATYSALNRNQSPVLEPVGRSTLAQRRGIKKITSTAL
Sequence of Fibroblast growth factor receptor 1 (Homo sapiens) (P11362 22-822 limits assumed): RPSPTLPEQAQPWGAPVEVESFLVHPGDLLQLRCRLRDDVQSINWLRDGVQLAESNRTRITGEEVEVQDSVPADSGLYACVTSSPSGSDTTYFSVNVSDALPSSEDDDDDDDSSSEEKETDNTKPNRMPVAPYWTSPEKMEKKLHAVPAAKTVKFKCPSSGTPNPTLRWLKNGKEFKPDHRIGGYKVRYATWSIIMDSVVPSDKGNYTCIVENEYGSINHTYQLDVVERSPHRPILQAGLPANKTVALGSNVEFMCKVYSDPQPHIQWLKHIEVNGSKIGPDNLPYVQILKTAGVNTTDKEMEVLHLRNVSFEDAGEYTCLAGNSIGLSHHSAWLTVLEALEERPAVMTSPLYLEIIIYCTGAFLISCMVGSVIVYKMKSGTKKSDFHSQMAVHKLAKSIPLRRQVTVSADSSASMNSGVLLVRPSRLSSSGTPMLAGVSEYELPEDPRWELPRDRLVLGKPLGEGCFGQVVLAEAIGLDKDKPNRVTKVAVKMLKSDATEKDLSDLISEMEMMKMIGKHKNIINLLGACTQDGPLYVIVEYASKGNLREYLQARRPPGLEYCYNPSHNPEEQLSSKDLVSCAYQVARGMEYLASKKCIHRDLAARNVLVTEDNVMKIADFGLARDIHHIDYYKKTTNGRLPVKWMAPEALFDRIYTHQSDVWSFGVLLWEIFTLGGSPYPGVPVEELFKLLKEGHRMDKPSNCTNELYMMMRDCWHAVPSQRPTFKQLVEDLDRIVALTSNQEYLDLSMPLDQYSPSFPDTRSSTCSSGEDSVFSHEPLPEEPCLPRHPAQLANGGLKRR
Sequence of Casein kinase I isoform gamma-2 (Homo sapiens) (P78368 whole entry, looked up, canonical isoform): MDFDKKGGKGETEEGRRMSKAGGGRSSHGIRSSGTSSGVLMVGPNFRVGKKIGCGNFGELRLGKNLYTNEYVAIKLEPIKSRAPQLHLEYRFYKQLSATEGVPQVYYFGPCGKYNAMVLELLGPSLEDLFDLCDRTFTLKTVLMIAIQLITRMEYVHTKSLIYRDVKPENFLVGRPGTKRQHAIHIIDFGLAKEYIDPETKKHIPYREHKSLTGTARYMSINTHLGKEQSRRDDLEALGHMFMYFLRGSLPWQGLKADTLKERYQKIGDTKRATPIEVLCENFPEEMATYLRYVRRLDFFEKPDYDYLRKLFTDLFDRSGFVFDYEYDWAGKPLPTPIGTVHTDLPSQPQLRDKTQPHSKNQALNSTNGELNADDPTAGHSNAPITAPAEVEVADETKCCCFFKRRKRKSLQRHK

For `COc1cc2nc(C)nc(N[C@H](C)c3cccc(-c4cn[nH]c4)c3)c2cc1OC`, the Activity in test [1] is 75%; in test [2], 70%; in test [3], 100%; in [4], 99%; in test [5], 94%; in test [6], 95%. For the same molecule, the Activity in test [7] was determined as 65%; in test [8], 94%; in test [9], 88%; in [10], 98%; in test [11] it was 83%; in test [12], 97%. Also, the Activity was 72% in [13]; 100% in test [14]; 74% in test [15]; 94% in test [16]; 83% in [17]; 86% in [18].

Take `COc1cc2ncnc(N[C@H](C)c3cccc4ccccc34)c2cc1OC`: the Activity in test [1] stood at 71%; in test [2], 100%; in test [3], 100%; in test [4] it was 3.2%; in test [5], 100%; in test [6], 100%. For the same molecule, the Activity was found to be 80% in test [7]; 100% in [8]; 97% in test [9]; 100% in test [10]; 100% in test [11]; 83% in test [12]. The Activity in test [13] stood at 91%; in test [14], 100%; in test [15] it was 11%; in test [16] it was 51%; in test [17], 100%; in [18] it was 92%.
